Results as given in patent US10350204B2, “Methods for treating cognitive deficits associated with fragile X syndrome” (Wisconsin Alumni Research Foundation, priority 2015, dated 2019).

Legend:
Type in all cases: cell-based, mouse
[1] = system: Fmr1 KO and wildtype NPCs; assay: BrdU proliferation assay of cultured NPCs
Protocol: We used only early passage cells (between passage 4 and 10) and only the same passage numbers of wild type (WT) and Fmr1 KO cells. For each experiment, triplicate wells of cells were analyzed, and results were averaged as one data point (n=1). At least 3 independent experiments (n=3) were performed and used for statistical analyses for each analysis. To study cell proliferation, we dissociated neural stem cells with trypsin and plated them on poly-L-ornithine and laminin-coated 24 well plate (Scientific fisher, 87721) at a density of 100,000 cells per well in proliferation medium. At 20 h post-plating, 5 μM 5-bromo-2.′-deoxyuridine (BrdU, Sigma-Aldrich) was added into the culture medium for 6 h. NPCs were then washed with PBS and fixed with 4% paraformaldehyde for 30 min at room temperature, followed by immunohistochemical analysis. To detect BrdU incorporation, fixed cells were pretreated with 1M HCl for 30 min at 37° C., and then washed with borate buffer, pH 8.5, for 30 min. We then followed our standard immunohistochemistry protocol^10. BrdU incorporation assay was determined using an Operetta high content imaging system (PerkinElmer, Inc) and Harmony quantification software (PerkinElmer, Inc). The percentage of proliferating cells was defined as the number of BrdU-labeled cells divided by total DAPI-positive cells.
For proliferation assay in vitro, 1 μM MK2206 (Selleckchem, S1078) (AKT phosphorylation inhibitor), or 2 μM Nutlin-3 (Nt3, Selleckchem, 51061) (Mdm2 inhibitor), or 1 μM RG7112 (Selleckchem, S7030) (Mdm2 inhibitor) or YH239-EE (Selleckchem 57489) (4 μM) (Mdm2 inhibitor) was added to proliferating NPCs at 6 hours post-plating. Cells were then pulse labeled 18 hours later with 5 μM 5-bromo-2′-deoxyuridine (BrdU, Sigma-Aldrich, B5002) and incubated for 6 hours in the presence of inhibitor, followed by fixation, staining, and quantification.

[2] = system: Fmr1 KO and wildtype NPCs; assay: Differentiation assay of cultured NPCs (Tuj1 neurons, GFAP astrocytes); details: 4 days
Protocol: Proliferation and differentiation of aNPCs were analyzed using our published methods (Guo et al., Nature Med. (2011); Guo et al., Neuron 70, 924-938 (2011); Luo et al., PLoS Genet 6 (2010); Liu et al., Cell Stem Cell 6 (2010)). We used only early passage cells (between passage 4 and 10) and only the same passage numbers of wild type (WT) and Fmr1 KO cells. For each experiment, triplicate wells of cells were analyzed, and results were averaged as one data point (n=1). At least 3 independent experiments (n=3) were performed and used for statistical analyses for each analysis. […] For the differentiation assay, at 24 h post-plating, cells were changed into differentiation medium, Neurobasal A, containing 5 μM forskolin (Sigma-Aldrich, F-6886) and 1 μM retinoic acid (Sigma-Aldrich, R-2625) for 4 d, followed by fixation with 4% paraformaldehyde for 30 min, and then washed with Dulbecco's Phosphate Buffered Saline (DPBS), pH 7.4 for 30 min. Immunocytochemistry staining was carried out as described (Guo et al., Nature Med. (2011); Guo et al., Neuron 70, 924-938 (2011); Luo et al., PLoS Genet 6 (2010); Liu et al., Cell Stem Cell 6 (2010)). Briefly, cells were preblocked using DPBS containing 5% normal goat serum (VECTOR, S-1000) and 0.1% Triton X-100 for 30 min, followed by overnight incubation with primary antibodies: mouse anti-Tuj1 (1:1000, Promega, G712A) and rabbit anti-S100β (1:1000, Dako, Z0334).
After washing with Dulbecco s Phosphate Buffered Saline (DPBS), cells were incubated with secondary antibodies that included goat anti-mouse 568 (1:1000, Invitrogen, A11031), goat anti-rabbit 488 (1:1000, Invitrogen, A11008) followed by counterstaining with the fluorescent nuclear dye 4′,6-diamidino-2′-phenylindole dihydrochloride (DAPI, Sigma-Aldrich, B2261). […] (VECTOR, H-1000), the numbers of Tuj1, GFAP-positive cells were quantified using an Olympus BX51 microscope equipped with a MicroFire digital camera (Optronics) and a motorized stage using a 20× objective lens. The quantification was carried out using an unbiased stereology method with assistance from StereoInvestigator software (MBF Biosciences). The percentage of differentiated cells was calculated as the number of Tuj1- or GFAP-labeled cells divided by the total number of cells stained with DAPI.

[3] = system: Fmr1 KO and wildtype NPCs; assay: Western blot analyses of p-AKT, p-MDM2, MDM2 and P53 in NPCs
Protocol: NPCs were isolated from the dentate gyms of 8 to 10-week-old male Fmr1 KO mice and wild-type (wildtype) littermate controls based on our published methods (12, 64). Independently isolated cells serve as biological replicates. Proliferation and differentiation of NPCs was analyzed as described (11, 12, 61). We used only early passage cells (between passage 4 and 10) and only the same passage numbers of wildtype and Fmr1 KO cells. For each experiment, triplicate wells of cells were analyzed, and results were averaged as one data point (n=1). At least 3 independent biological replicates were used (n=3) for statistical analyses.
Protein samples were separated on SDS-PAGE gels (Bio-Rad), transferred to PVDF membranes (Millipore), and incubated with primary antibodies. After incubation with fluorescence-labeled secondary antibodies (Li—CoR), the membranes were imaged using Li—CoR and quantification was performed using ImageJ software. At least n=3 independent blots were used for statistical analysis.
For loading controls, membranes were probed with the mouse antibody against GAPDH.

[4] = system: Fmr1 KO and wildtype NPCs; assay: as above; details: total AKT as loading control
[5] = Fmr1 KO NPCs, 1 μM MK2206, 2 μM Nutlin-3, 1 μM RG7112, 4 μM YH239-EE
[6] = Fmr1 KO NPCs, 1 μM MK2206, 2 μM Nutlin-3, 1 μM RG7112
[7] = wildtype NPCs, 1 μM MK2206, 2 μM Nutlin-3

Structure (SMILES)	cell proliferation (BrdU+ cells) [1, 5]	astroglial differentiation (GFAP+) [2, 6]	neuronal differentiation (Tuj1+) [2, 6]	P53 expression ([3]; Fmr1 KO NPCs)	p-MDM2 (Ser166) ([3]; Fmr1 KO NPCs)	total MDM2 ([3]; Fmr1 KO NPCs)	p-MDM2 (Ser166) ([3]; wildtype NPCs)	total MDM2 ([3]; wildtype NPCs)	cell proliferation (BrdU+ cells) [1, 7]	p-AKT ([4]; Fmr1 KO NPCs)	p-AKT ([4]; wildtype NPCs)	astroglial differentiation (GFAP+) [2, 7]	neuronal differentiation (Tuj1+) [2, 7]
CCOC(=O)c1[nH]c2cc(Cl)ccc2c1C(C(=O)NC(C)(C)C)N(C=O)Cc1ccc(Cl)cc1 (centres unmarked) [YH239-EE]	rescued the cell proliferation phenotype	–	–	–	–	–	–	–	–	–	–	–	–
CCOc1cc(C(C)(C)C)ccc1C1=N[C@@](C)(c2ccc(Cl)cc2)[C@@](C)(c2ccc(Cl)cc2)N1C(=O)N1CCN(CCCS(C)(=O)=O)CC1 [RG7112]	rescued the cell proliferation phenotype	rescued astroglial differentiation phenotypes	rescued neuronal differentiation phenotypes	–	–	–	–	–	–	–	–	–	–
NC1(c2ccc(-c3nc4ccn5c(=O)[nH]nc5c4cc3-c3ccccc3)cc2)CCC1 [MK-2206]	decreased cell proliferation	decreased	increased neuronal differentiation	enhanced P53 expression	reduced p-MDM2	without affecting total MDM2	reduced p-MDM2	without affecting total MDM2	decreased cell proliferation	reduced p-AKT	reduced p-AKT	decreased	increased neuronal differentiation
